The assay concerns MG-63/GFRα1 tumors. Put plainly: MG-63/GFRα1 xenograft in BALB/c nude mice. The conditions noted are these: CQ 60 mg/kg, cisplatin 3 mg/kg, once a week. The assay is classed as in vivo. Here is the method: FIG. 5. GFRα1-mediated autophagy promotes chemoresistance and tumor growth in vivo. (a) BALB/c nude mice (n =40) were injected with MG-63 cells that were transfected with either control or GFRα1 expressing vector. Tumor volume was measured every 3 or 4 days. Data are shown as mean±SEM. ** p<0.05. (b) BALB/c nude mice (n=20) were injected with MG-63 cells that were transfected with either control or GFRα1 shRNA. Tumor volume was measured every 3 or 4 days. Data are shown as mean±SEM. ** p<0.05. (c) Tumors that were generated from mice injected with MG-63 cells containing GFRα1 expressing vector were directly injected with PBS, CQ, cisplatin, or cisplatin+CQ. Tumor volume was measured every 4 days. Data are shown as mean±SEM. ** p<0.05 vs PBS, CQ, or cisplatin-treated tumors. (d) Left, representative images of immunofluorescence staining of HMGB1 in a section from tumors generated from mice injected with MG-63 cells containing GFRα1 expressing vector and then treated with PBS, CQ, cisplatin, or cisplatin+CQ. Right, quantitative analysis of percentage of cytoplasmic HMGB1-positive cells in HMGB1-positive tumors. The values are represented as a mean±s.d.m. (n=3). ** denotes p<0.05 by t-test. (e) Left, representative images of TUNEL-positive cells in a section from tumors generated from mice injected with MG-63 cells containing GFRα1 expressing vector and then treated with PBS, CQ, cisplatin, or cisplatin+CQ. Right, quantitative analysis of percentage of TUNEL-positive cells in HMGB1-positive tumors. The values are represented as a mean±s.d.m. (n=3). ** denotes p<0.05 by t-test. (0 Survival rate of mice injected with MG-63 cells containing GFRα1 expressing vector and then treated with either cisplatin or cisplatin+CQ. (g) Representative images of immunohistochemical staining of GFRα1 in a section from human osteosarcoma patient before and after cisplatin treatment. (h) Representative images of immunofluorescence staining of GFRα1 and HMGB1 in a section from human osteosarcoma patient before and after cisplatin treatment.
Tumor formation in nude mice. The mice used in this study were 6-week-old female BALB/c nude mice purchased from Orient Bio Inc. (Seongnam, Korea). […] The tumor size was measured with a caliper every 3 or 4 days. […] The tumor size was measured with a caliper every 4 days. […] were calculated from caliper measurements of tumor dimensions in mm using the formula for a prolate ellipsoid: (L×W^2)/2 where L is the longer of the two-measurements.
Statistical analysis. Survival data was analyzed by the Kaplan-Meier and log-rank test with GraphPad Prism v5.04 (GraphPad Software, La Jolla Calif.). Plating efficiency (PE, %)=(Number of colonies counted/Number of cells plated)×100. […] All values are expressed as the mean±standard deviation (SD). […]

The record followed here is patent US20180171411A1, “GFRalpha1 AS A BIOMARKER FOR CISPLATIN-INDUCED CHEMORESISTANCE AND METASTASIS” (THE BOARD OF REGENTS OF THE UNIVERSITY OF TEXAS SYSTEM, priority 2015, published 2018).

Regarding `N.N.[Cl][Pt][Cl]` [cisplatin, Cis-Diamineplatinum(II) dichloride], the tumor progression result is “allowed the tumors to survive” and the “tumor volume compared to PBS-treated mice” value is “decreased”.
